Starred links: 1 amine or outer side, 2 acyl side, 3 side chain; linkers in the order of their positions; H or OH if unused. Non-standard residues stand in square brackets, D forms with d. Residues, ends and D or L forms follow the SMILES beside them. Groups on a side chain read outwards from the residue. *: point of attachment. C20 diacid = O=C(O)CCCCCCCCCCCCCCCCCCC(=O)*; γGlu = O=C(O)[C@H](CCC(=O)[*:2])N[*:1]; Palmitoyl = CCCCCCCCCCCCCCCC(=O)*; AEEA = NCCOCCOCC(=O)O; Aib = CC(C)(N)C(=O)O
Experiments:
human GIP R = target: T1, human GIP R (Homo sapiens, UniProt P48546); assay: cell-based
T1 sequence (P48546 22-466): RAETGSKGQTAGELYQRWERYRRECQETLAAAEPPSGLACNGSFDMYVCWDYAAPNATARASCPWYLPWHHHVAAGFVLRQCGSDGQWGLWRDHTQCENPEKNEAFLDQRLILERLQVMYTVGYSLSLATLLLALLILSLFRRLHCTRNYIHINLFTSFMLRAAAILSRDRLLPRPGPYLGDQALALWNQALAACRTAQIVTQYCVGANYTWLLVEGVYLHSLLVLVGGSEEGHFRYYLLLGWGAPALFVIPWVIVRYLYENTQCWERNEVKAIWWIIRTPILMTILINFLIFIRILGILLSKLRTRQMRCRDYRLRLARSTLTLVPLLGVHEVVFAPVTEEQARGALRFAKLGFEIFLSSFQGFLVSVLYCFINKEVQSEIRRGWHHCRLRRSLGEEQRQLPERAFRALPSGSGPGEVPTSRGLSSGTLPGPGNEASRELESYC

[1] = target: T2, human GIP receptor (GIP R) (Homo sapiens, UniProt P48546); assay: Activity assay at human GIP receptor, cAMP induction (AlphaScreen), Example 3
T2 sequence (P48546 22-466): T1 sequence (P48546 22-466)

SMILES	EC50 (human GIP R) [nM]	EC50 [1] [nM]
CCCCCCCCCCCCCCCC(=O)N[C@@H](CCC(=O)NCCCC[C@H](NC(=O)[C@H](CCCCN)NC(=O)[C@H](CC(=O)O)NC(=O)[C@H](CC(C)C)NC(=O)[C@H](CCC(=O)O)NC(=O)[C@@H](NC(=O)[C@H](CO)NC(=O)[C@H](Cc1ccc(O)cc1)NC(=O)[C@H](CC(=O)O)NC(=O)[C@H](CO)NC(=O)[C@@H](NC(=O)[C@H](Cc1ccccc1)NC(=O)[C@@H](NC(=O)CNC(=O)[C@H](CCC(=O)O)NC(=O)C(C)(C)NC(=O)[C@@H](N)Cc1ccc(O)cc1)[C@@H](C)O)[C@@H](C)CC)[C@@H](C)CC)C(=O)N[C@@H](Cc1c[nH]cn1)C(=O)N[C@@H](CCC(N)=O)C(=O)N[C@@H](CCC(N)=O)C(=O)N[C@@H](CC(=O)O)C(=O)N[C@@H](Cc1ccccc1)C(=O)N[C@H](C(=O)N[C@@H](CC(N)=O)C(=O)N[C@@H](Cc1c[nH]c2ccccc12)C(=O)N[C@@H](CC(C)C)C(=O)N[C@@H](CC(C)C)C(=O)N[C@@H](C)C(=O)N[C@@H](CCC(N)=O)C(=O)NCC(=O)N1CCC[C@H]1C(=O)N[C@@H](CO)C(=O)N[C@@H](CO)C(=O)NCC(=O)N[C@@H](C)C(=O)N1CCC[C@H]1C(=O)N1CCC[C@H]1C(=O)N1CCC[C@H]1C(=O)N[C@@H](CO)C(N)=O)C(C)C)C(=O)O [Compound 1] (H-Y[Aib]EGTFISDYSIELDKK([γGlu-Palmitoyl])HQQDFVNWLLAQGPSSGAPPPS-NH2)	0.008	–
CCCCCCCCCCCCCCCC(=O)N[C@@H](CCC(=O)NCCCC[C@H](NC(=O)[C@H](CC(=O)O)NC(=O)[C@H](CC(C)C)NC(=O)[C@H](CCC(=O)O)NC(=O)[C@@H](NC(=O)[C@H](CO)NC(=O)[C@H](Cc1ccc(O)cc1)NC(=O)[C@H](CC(=O)O)NC(=O)[C@H](CO)NC(=O)[C@@H](NC(=O)[C@H](Cc1ccccc1)NC(=O)[C@@H](NC(=O)CNC(=O)[C@H](CCC(=O)O)NC(=O)C(C)(C)NC(=O)[C@@H](N)Cc1ccc(O)cc1)[C@@H](C)O)[C@@H](C)CC)[C@@H](C)CC)C(=O)N[C@H](C(=O)N[C@@H](Cc1c[nH]cn1)C(=O)N[C@@H](CCC(N)=O)C(=O)N[C@@H](CCC(N)=O)C(=O)N[C@@H](CC(=O)O)C(=O)N[C@@H](Cc1ccccc1)C(=O)N[C@H](C(=O)N[C@@H](CC(N)=O)C(=O)N[C@@H](Cc1c[nH]c2ccccc12)C(=O)N[C@@H](CC(C)C)C(=O)N[C@@H](CC(C)C)C(=O)N[C@@H](C)C(=O)N[C@@H](CCC(N)=O)C(=O)NCC(=O)N1CCC[C@H]1C(=O)N[C@@H](CO)C(=O)N[C@@H](CO)C(=O)NCC(=O)N[C@@H](C)C(=O)N1CCC[C@H]1C(=O)N1CCC[C@H]1C(=O)N1CCC[C@H]1C(=O)N[C@@H](CO)C(N)=O)C(C)C)[C@@H](C)CC)C(=O)O [Compound 2] (H-Y[Aib]EGTFISDYSIELDK([γGlu-Palmitoyl])IHQQDFVNWLLAQGPSSGAPPPS-NH2)	0.013	0.008
CCCCCCCCCCCCCCCC(=O)N[C@@H](CCC(=O)NCCCC[C@H](NC(=O)[C@H](CCCCN)NC(=O)[C@H](CCC(=O)O)NC(=O)[C@H](CC(C)C)NC(=O)[C@H](CCC(=O)O)NC(=O)[C@@H](NC(=O)[C@H](CO)NC(=O)[C@H](Cc1ccc(O)cc1)NC(=O)[C@H](CC(=O)O)NC(=O)[C@H](CO)NC(=O)[C@@H](NC(=O)[C@H](Cc1ccccc1)NC(=O)[C@@H](NC(=O)CNC(=O)[C@H](CCC(=O)O)NC(=O)C(C)(C)NC(=O)[C@@H](N)Cc1ccc(O)cc1)[C@@H](C)O)[C@@H](C)CC)[C@@H](C)CC)C(=O)N[C@@H](Cc1c[nH]cn1)C(=O)N[C@@H](CCC(N)=O)C(=O)N[C@@H](CCC(N)=O)C(=O)N[C@@H](CC(=O)O)C(=O)N[C@@H](Cc1ccccc1)C(=O)N[C@H](C(=O)N[C@@H](CC(N)=O)C(=O)N[C@@H](Cc1c[nH]c2ccccc12)C(=O)N[C@@H](CC(C)C)C(=O)N[C@@H](CC(C)C)C(=O)N[C@@H](C)C(=O)N[C@@H](CCC(N)=O)C(=O)NCC(=O)N1CCC[C@H]1C(=O)N[C@@H](CO)C(=O)N[C@@H](CO)C(=O)NCC(=O)N[C@@H](C)C(=O)N1CCC[C@H]1C(=O)N1CCC[C@H]1C(=O)N1CCC[C@H]1C(=O)N[C@@H](CO)C(N)=O)C(C)C)C(=O)O [Compound 3] (H-Y[Aib]EGTFISDYSIELEKK([γGlu-Palmitoyl])HQQDFVNWLLAQGPSSGAPPPS-NH2)	0.014	0.014
CC[C@H](C)[C@H](NC(=O)[C@H](CCCCN)NC(=O)[C@H](CC(=O)O)NC(=O)[C@H](CC(C)C)NC(=O)[C@H](CCC(=O)O)NC(=O)[C@@H](NC(=O)[C@H](CO)NC(=O)[C@H](Cc1ccc(O)cc1)NC(=O)[C@H](CC(=O)O)NC(=O)[C@H](CO)NC(=O)[C@@H](NC(=O)[C@H](Cc1ccccc1)NC(=O)[C@@H](NC(=O)CNC(=O)[C@H](CCC(=O)O)NC(=O)C(C)(C)NC(=O)[C@@H](N)Cc1ccc(O)cc1)[C@@H](C)O)[C@@H](C)CC)[C@@H](C)CC)C(=O)N[C@@H](Cc1c[nH]cn1)C(=O)N[C@@H](CCC(N)=O)C(=O)N[C@@H](CCC(N)=O)C(=O)N[C@@H](CC(=O)O)C(=O)N[C@@H](Cc1ccccc1)C(=O)N[C@H](C(=O)N[C@@H](CC(N)=O)C(=O)N[C@@H](Cc1c[nH]c2ccccc12)C(=O)N[C@@H](CC(C)C)C(=O)N[C@@H](CC(C)C)C(=O)N[C@@H](C)C(=O)N[C@@H](CCC(N)=O)C(=O)NCC(=O)N1CCC[C@H]1C(=O)N[C@@H](CO)C(=O)N[C@@H](CO)C(=O)NCC(=O)N[C@@H](C)C(=O)N1CCC[C@H]1C(=O)N1CCC[C@H]1C(=O)N1CCC[C@H]1C(=O)N[C@@H](CO)C(=O)N[C@@H](CCCCNC(=O)COCCOCCNC(=O)COCCOCCNC(=O)CC[C@H](NC(=O)CCCCCCCCCCCCCCCCCCC(=O)O)C(=O)O)C(N)=O)C(C)C [Compound 4] (H-Y[Aib]EGTFISDYSIELDKIHQQDFVNWLLAQGPSSGAPPPSK([AEEA-AEEA-γGlu-C20 diacid])-NH2)	0.013	0.014
CCCCCCCCCCCCCCCC(=O)N[C@@H](CCC(=O)NCCCC[C@H](NC(=O)[C@H](CO)NC(=O)[C@@H]1CCCN1C(=O)[C@@H]1CCCN1C(=O)[C@@H]1CCCN1C(=O)[C@H](C)NC(=O)CNC(=O)[C@H](CO)NC(=O)[C@H](CO)NC(=O)[C@@H]1CCCN1C(=O)CNC(=O)[C@H](CCC(N)=O)NC(=O)[C@H](C)NC(=O)[C@H](CC(C)C)NC(=O)[C@H](CC(C)C)NC(=O)[C@H](Cc1c[nH]c2ccccc12)NC(=O)[C@H](CC(N)=O)NC(=O)[C@@H](NC(=O)[C@H](Cc1ccccc1)NC(=O)[C@H](CC(=O)O)NC(=O)[C@H](CCC(N)=O)NC(=O)[C@H](CCC(N)=O)NC(=O)[C@H](Cc1c[nH]cn1)NC(=O)[C@@H](NC(=O)[C@H](CCCCN)NC(=O)[C@H](CC(=O)O)NC(=O)[C@H](CC(C)C)NC(=O)[C@H](CCC(=O)O)NC(=O)[C@@H](NC(=O)[C@H](CO)NC(=O)[C@H](Cc1ccc(O)cc1)NC(=O)[C@H](CC(=O)O)NC(=O)[C@H](CO)NC(=O)[C@@H](NC(=O)[C@H](Cc1ccccc1)NC(=O)[C@@H](NC(=O)CNC(=O)[C@H](CCC(=O)O)NC(=O)C(C)(C)NC(=O)[C@@H](N)Cc1ccc(O)cc1)[C@@H](C)O)[C@@H](C)CC)[C@@H](C)CC)[C@@H](C)CC)C(C)C)C(N)=O)C(=O)O [Compound 5] (H-Y[Aib]EGTFISDYSIELDKIHQQDFVNWLLAQGPSSGAPPPSK([γGlu-Palmitoyl])-NH2)	0.014	0.014
CCCCCCCCCCCCCCCC(=O)N[C@@H](CCC(=O)NCCCC[C@H](NC(=O)[C@H](CCC(N)=O)NC(=O)[C@H](C)NC(=O)[C@H](CC(C)C)NC(=O)[C@H](CC(C)C)NC(=O)[C@H](Cc1c[nH]c2ccccc12)NC(=O)[C@H](CC(N)=O)NC(=O)[C@@H](NC(=O)[C@H](Cc1ccccc1)NC(=O)[C@H](CC(=O)O)NC(=O)[C@H](CCC(N)=O)NC(=O)[C@H](CCC(N)=O)NC(=O)[C@H](Cc1c[nH]cn1)NC(=O)[C@@H](NC(=O)[C@H](CCCCN)NC(=O)[C@H](CC(=O)O)NC(=O)[C@H](CC(C)C)NC(=O)[C@H](CCC(=O)O)NC(=O)[C@@H](NC(=O)[C@H](CO)NC(=O)[C@H](Cc1ccc(O)cc1)NC(=O)[C@H](CC(=O)O)NC(=O)[C@H](CO)NC(=O)[C@@H](NC(=O)[C@H](Cc1ccccc1)NC(=O)[C@@H](NC(=O)CNC(=O)[C@H](CCC(=O)O)NC(=O)C(C)(C)NC(=O)[C@@H](N)Cc1ccc(O)cc1)[C@@H](C)O)[C@@H](C)CC)[C@@H](C)CC)[C@@H](C)CC)C(C)C)C(N)=O)C(=O)O [Compound 6] (H-Y[Aib]EGTFISDYSIELDKIHQQDFVNWLLAQK([γGlu-Palmitoyl])-NH2)	0.032	0.014
CCCCCCCCCCCCCCCC(=O)N[C@@H](CCC(=O)NCCCC[C@H](NC(=O)CNC(=O)[C@H](CCCCN)NC(=O)[C@H](CCC(N)=O)NC(=O)[C@H](C)NC(=O)[C@H](CC(C)C)NC(=O)[C@H](CC(C)C)NC(=O)[C@H](Cc1c[nH]c2ccccc12)NC(=O)[C@H](CC(N)=O)NC(=O)[C@@H](NC(=O)[C@H](Cc1ccccc1)NC(=O)[C@H](CC(=O)O)NC(=O)[C@H](CCC(N)=O)NC(=O)[C@H](CCC(N)=O)NC(=O)[C@H](Cc1c[nH]cn1)NC(=O)[C@@H](NC(=O)[C@H](CCCCN)NC(=O)[C@H](CC(=O)O)NC(=O)[C@H](CC(C)C)NC(=O)[C@H](CCC(=O)O)NC(=O)[C@@H](NC(=O)[C@H](CO)NC(=O)[C@H](Cc1ccc(O)cc1)NC(=O)[C@H](CC(=O)O)NC(=O)[C@H](CO)NC(=O)[C@@H](NC(=O)[C@H](Cc1ccccc1)NC(=O)[C@@H](NC(=O)CNC(=O)[C@H](CCC(=O)O)NC(=O)C(C)(C)NC(=O)[C@@H](N)Cc1ccc(O)cc1)[C@@H](C)O)[C@@H](C)CC)[C@@H](C)CC)[C@@H](C)CC)C(C)C)C(N)=O)C(=O)O [Compound 7] (H-Y[Aib]EGTFISDYSIELDKIHQQDFVNWLLAQKGK([γGlu-Palmitoyl])-NH2)	–	0.032
